Measured values reported in publication PMC11331127 (Proceedings of the National Academy of Sciences of the …, 2024).

Columns and labels:
Type in all cases: cell-based
Cx26 [1] = target: T1, Cx26 (Homo sapiens, UniProt P29033); experiment: dye uptake rate in Xenopus oocytes; conditions: transport (dye permeation); resting membrane potential
Cx26 [2] = target: Cx26 (Homo sapiens, UniProt P29033, INS2A); experiment: dye uptake rate in Xenopus oocytes; conditions: transport (dye permeation); resting membrane potential
Cx26 [3] = target: T1, Cx26; experiment: inhibition of DAPI uptake in Xenopus oocytes; conditions: competitive versus DAPI; resting membrane potential
Cx30 = Cx30 (Homo sapiens, UniProt O95452); experiment: dye uptake rate in Xenopus oocytes; conditions: transport (dye permeation); resting membrane potential
Cx30, sequence (O95452 whole entry): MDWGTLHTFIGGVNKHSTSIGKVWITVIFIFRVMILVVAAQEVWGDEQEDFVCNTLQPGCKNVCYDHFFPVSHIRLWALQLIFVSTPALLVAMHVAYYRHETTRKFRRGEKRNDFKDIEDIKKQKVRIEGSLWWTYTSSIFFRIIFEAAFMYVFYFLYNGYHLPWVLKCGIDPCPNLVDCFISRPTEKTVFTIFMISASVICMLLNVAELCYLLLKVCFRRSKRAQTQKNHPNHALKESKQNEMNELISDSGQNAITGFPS

Km (Cx26 [1]) [µM] | Km (Cx26 [2]) [µM] | Ki (Cx26 [3]) [µM] | Km (Cx30) [µM] | Substance
90.1 ± 22 |  |  |  | DAPI
 | 88.6 ± 17.4 | ~16.5 | 6.6 ± 2 | ethidium
